Laboratory results from patent publication US20060058966A1, “Methods and systems for guiding selection of chemotherapeutic agents” (priority 2004, published 2006).

What was measured:
Assay type in all cases: cell-based, human
[1] = test system: tumor of patient also suffering from ovarian cancer; assay: ATP-TCA assay of tumor samples of patient two; conditions: for Initial Therapeutic Index: indexed as for patient one
Method: Briefly, the ATP-TCA assay is conducted as follows. First, aseptically obtained solid tumor specimens are dispersed using, e.g. surgical scissors and scalpels. Subsequently, tissue fragments of 0.5 to 2 mm in diameter are enzymatically dissociated into a cell suspension of single cells and small aggregates by incubation for 4-18 h in 5-10 ml sterile collagenase-containing enzyme preparation such as tumor dissociation enzyme preparation, TDE. Commercially available from Atlantic Scientific, Fort Lauderdale, Fla., or from DCS Innovative Diagnostic Systeme GmbH, Hamburg, Germany. Alternatively, tissue fragments are dissociated using 1.5 mg/ml collagenase H (Sigma Chemical, St. Lewis, Mo.) or by mechanical desegregation. (see, e.g., Myatt et al., 1997, Anticancer Drugs, 8:756-762) After filtration and ficoll-hypaque density centrifugation, e.g. (Lymphoprep®, ICN Flow, Meckenheim, Germany; Histopaque, Sigma Chemical, St. Louis, Mo.), the quality and viability of resultant single cell suspensions are determined e.g., by trypan blue dye exclusion (0.2% Merck, Darmstadt, Germany) and by subsequent cytological examination. A serum-free Complete Assay medium (CAM) available from DCS Innovative Diagnostik Systeme GmbH, Hamburg, Germany is added and cell suspensions then are adjusted to a final concentration of 1-2×10^5 viable cells per ml.
Drug assays can be performed in 96-well polypropylene microtiter plates (round-bottom). Test drug concentrations (TDC) are prepared directly on the plates by serial 1:2-dilutions of the individual stock solutions. Each drug is tested by continuous exposure in triplicate at a number, e.g., six different concentrations ranging from 6.25% to 200% of test drug concentration.
Subsequently, a sample, e.g. 100 μl of single cell suspension (i.e., 10,000- 20,000 cells) is added to each well. Cultures are incubated at 37° C. and 95% humidity in a 95% air, 5% CO2 atmosphere.
After 5-7 days of incubation, another cytological analysis is performed in untreated MO controls. Subsequently, intracellular ATP is extracted and stabilized. Then 50 μl aliquots of each lysate is then transferred to a liminometer, e.g. a LB-953 liminometer (Berthold, Wildbad, Germany). ATP is measured, e.g. by the “firefly” light reaction after automatically pipetting 55 μl of Luciferin-Luciferase-Reagent (Lu-Lu) to each cell extract. Luminescence response expressed as Relative Light Units (RLU=photons/10) is counted for 10 seconds with a 4 second delay. An ATP standard curve is performed for all assays. MO should be greater than 100 pg/ml ATP. Assays showing mean RLU values of less than 20,000 (MO), a MI/MO-ratio>0.01, or evidence of microbiological contamination are regarded as non-evaluable. End assays are also sampled for pathology, proof that the final wells after treatment contain tumor not benign cells.
All ATP-TCA assays were conducted as described previously herein in detail (see also, e.g., Andreotti et al., 1995, Cancer Res. 55:5276-82; Kurbacher et al., 1996, Breast Cancer Res. Treat., 41:161-70).

[2] = test system: tumor of patient suffering from ovarian cancer; assay: ATP-TCA assay of tumor samples of patient one; conditions: for Initial Therapeutic Index: tumor response curves ranked by AUC-1, high index = more effective
Method: Briefly, the ATP-TCA assay is conducted as follows. First, aseptically obtained solid tumor specimens are dispersed using, e.g. surgical scissors and scalpels. Subsequently, tissue fragments of 0.5 to 2 mm in diameter are enzymatically dissociated into a cell suspension of single cells and small aggregates by incubation for 4-18 h in 5-10 ml sterile collagenase-containing enzyme preparation such as tumor dissociation enzyme preparation, TDE. Commercially available from Atlantic Scientific, Fort Lauderdale, Fla., or from DCS Innovative Diagnostic Systeme GmbH, Hamburg, Germany. Alternatively, tissue fragments are dissociated using 1.5 mg/ml collagenase H (Sigma Chemical, St. Lewis, Mo.) or by mechanical desegregation. (see, […] al., 1997, Anticancer Drugs, 8:756-762) After filtration and ficoll-hypaque density centrifugation, e.g. (Lymphoprep®, ICN Flow, […], Germany; Histopaque, Sigma Chemical, St. […] A serum-free Complete Assay medium (CAM) available from DCS Innovative Diagnostik Systeme GmbH, Hamburg, Germany is added and cell suspensions then are adjusted to a final concentration of 1-2×10^5 viable cells per ml. […] Test drug concentrations (TDC) are prepared directly on the plates by serial 1:2-dilutions of the individual stock solutions. […] Appropriate controls, e.g., one with CAM, i.e., no inhibition control, (MO) and the other with Maximum ATP Inhibitor (MI) instead of the cytostatics, can be used in six wells of every culture plate. Subsequently, a sample, e.g. 100 μl of single cell suspension (i.e., 10,000- 20,000 cells) is added to each well. Cultures are incubated at 37° C. and 95% humidity in a 95% air, 5% CO2 atmosphere. After 5-7 days of incubation, another cytological analysis is performed in untreated MO controls. Subsequently, intracellular ATP is extracted and stabilized. Then 50 μl aliquots of each lysate is then transferred to a liminometer, e.g. a LB-953 liminometer (Berthold, Wildbad, Germany). ATP is measured, e.g. by the “firefly” light reaction after automatically pipetting 55 μl of Luciferin-Luciferase-Reagent (Lu-Lu) to each cell extract. Luminescence response expressed as Relative Light Units (RLU=photons/10) is counted for 10 seconds with a 4 second delay. An ATP standard curve is performed for all assays. […] End assays are also sampled for pathology, proof that the final wells after treatment contain tumor not benign cells. The following illustrates assignment of a Preliminary Rank or Order to a drug(s) or agent(s) based on the results of ATP-TCA assays of patient tumors presented in representative FIGS. 4A-C. All ATP-TCA assays were conducted as described previously herein in detail (see also, e.g., Andreotti et al., 1995, Cancer Res. 55:5276-82; Kurbacher et al., 1996, Breast Cancer Res. Treat., 41:161-70). FIG. 4A illustrates assay results were obtained with samples of a tumor of patient […] suffering from ovarian cancer. The results of an ATP-TCA assay are graphically presented (FIG. 4A) as a plot of (TDC) Test Drug Concentration (%) versus Tumor Growth Inhibition (%) (i.e., ATP test activity/ATP control×100%). (Carboplatin is abbreviated in FIGS. 4A-B as CBDCA.) The tumor response curves presented in FIG. 4A are ranked as described herein as if they were reference data. The numerical measure used is the AUC-I test. […] Alternative, the range from the least to the greatest response can be divided into 10 segments and the curves are assigned to their corresponding segments.

[3] = test system: tumor of a pancreatic cancer patient; assay: ATP-TCA assay of tumor samples of a pancreatic cancer patient; conditions: pancreatic cancer sample
Method: Briefly, the ATP-TCA assay is conducted as follows. First, aseptically obtained solid tumor specimens are dispersed using, e.g. surgical scissors and scalpels. Subsequently, tissue fragments of 0.5 to 2 mm in diameter are enzymatically dissociated into a cell suspension of single cells and small aggregates by incubation for 4-18 h in 5-10 ml sterile collagenase-containing enzyme preparation such as tumor dissociation enzyme preparation, TDE. Commercially available from Atlantic Scientific, Fort Lauderdale, Fla., or from DCS Innovative Diagnostic Systeme GmbH, Hamburg, Germany. Alternatively, tissue fragments are dissociated using 1.5 mg/ml collagenase H (Sigma Chemical, St. Lewis, Mo.) or by mechanical desegregation. […] A serum-free Complete Assay medium (CAM) available from DCS Innovative Diagnostik Systeme GmbH, Hamburg, Germany is added and cell suspensions then are adjusted to a final concentration of 1-2×10^5 viable cells per ml. […] Test drug concentrations (TDC) are prepared directly on the plates by serial 1:2-dilutions of the individual stock solutions. […] Subsequently, a sample, e.g. 100 μl of single cell suspension (i.e., 10,000- 20,000 cells) is added to each well. Cultures are incubated at 37° C. and 95% humidity in a 95% air, 5% CO2 atmosphere. After 5-7 days of incubation, another cytological analysis is performed in untreated MO controls. Subsequently, intracellular ATP is extracted and stabilized. Then 50 μl aliquots of each lysate is then transferred to a liminometer, e.g. a LB-953 liminometer (Berthold, Wildbad, Germany). ATP is measured, e.g. by the “firefly” light reaction after automatically pipetting 55 μl of Luciferin-Luciferase-Reagent (Lu-Lu) to each cell extract. Luminescence response expressed as Relative Light Units (RLU=photons/10) is counted for 10 seconds with a 4 second delay. An ATP standard curve is performed for all assays. MO should be greater than 100 pg/ml ATP. […] End assays are also sampled for pathology, proof that the final wells after treatment contain tumor not benign cells. […] All ATP-TCA assays were conducted as described previously herein in detail (see also, e.g., Andreotti et al., 1995, Cancer Res. 55:5276-82; Kurbacher et al., 1996, Breast Cancer Res. Treat., 41:161-70).

| SMILES | activity against this patient's tumor [1] | Initial Therapeutic Index [1] | activity against this patient's tumor [2] | Initial Therapeutic Index [2] | Initial Therapeutic Index [3] | activity against this tumor [3] |
| --- | --- | --- | --- | --- | --- | --- |
| N.N.O=C([O-])C1(C(=O)[O-])CCC1.[Pt+2] [Carboplatin] | at best moderately active | 5 | single best drug | 10 |  |  |
| N.N.[Cl][Pt][Cl] [DDP, cisplatin] |  |  |  |  | 2 | not significantly active |
| Nc1ccn([C@@H]2O[C@H](CO)[C@@H](O)C2(F)F)c(=O)n1 [Gemcitabine, gemcitabine] | at best moderately active | 3 | not significantly active | 3 | 3 | not significantly active |
| CC(=O)O[C@H]1C(=O)[C@@]2(C)[C@H]([C@H](OC(=O)c3ccccc3)[C@]3(O)C[C@H](OC(=O)[C@H](O)[C@@H](NC(=O)c4ccccc4)c4ccccc4)C(C)=C1C3(C)C)[C@]1(OC(C)=O)CO[C@@H]1C[C@@H]2O [Taxol, paclitaxel] | single best drug | 8 | not significantly active | 2 |  |  |
